We go through three molecules from ChEMBL document CHEMBL1681737, “Isatin 1,2,3-triazoles as potent inhibitors against caspase-3” (Bioorg Med Chem Lett, 2011).

Structures are written as SMILES.

The experiment deals with T1, Caspase-3 (Homo sapiens, UniProt P42574).
T1 sequence (P42574 whole entry): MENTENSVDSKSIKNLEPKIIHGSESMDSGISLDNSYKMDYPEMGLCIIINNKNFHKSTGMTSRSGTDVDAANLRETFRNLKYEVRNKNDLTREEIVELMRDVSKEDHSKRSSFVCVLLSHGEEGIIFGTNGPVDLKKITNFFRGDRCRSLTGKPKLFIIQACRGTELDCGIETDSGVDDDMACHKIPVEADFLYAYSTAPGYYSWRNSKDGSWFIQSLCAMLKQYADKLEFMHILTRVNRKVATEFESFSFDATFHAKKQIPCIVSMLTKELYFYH
Briefly: Inhibition of caspase 3 using Ac-DEVD-AFC fluorogenic substrate.
In the case of `O=C1C(=O)N(Cc2cn(CCF)nn2)c2ccc(S(=O)(=O)N3CCC[C@H]3COc3ccccc3)cc21`, half-maximal inhibition (IC50) was put at 16.7 nM.
Then `O=C1C(=O)N(Cc2cn(CCF)nn2)c2ccc(S(=O)(=O)N3CCC[C@H]3COc3ccc(F)cc3F)cc21`, with 0.5 nM.
Then `O=C1Nc2ccc([N+](=O)[O-])cc2C1=O` [5-NITROISATIN], with 1000 nM.
